Results taken from patent US20250228858A1, “ANTI-CANCER COMBINATION THERAPY” (Boehringer Ingelheim International GmbH, priority 2023, published 2025).
*1 amine or outer side, *2 acyl side, *3 side chain or, on linkers, in order; H or OH if unused. Where a SMILES comes first, the peptide text is derived from it. [ ]: non-standard residue; d: D form. The star is where a group is joined. Exatecan = CC[C@@]1(O)C(=O)OCc2c1cc1n(c2=O)Cc2c-1nc1cc(F)c(C)c3c1c2[C@@H](N*)CC3; Hexanoyl(6-maleimido) = O=C1C=CC(=O)N1CCCCCC(=O)*; NHCH2OCH2CO = O=C(COCN[*:1])[*:2]

How the values were obtained:
[1] = test system: T-DXd-resistant NCI-N87 cells; assay: Proliferation assay (CellTiter Glo), T-DXd resistant NCI-N87 cells; type: cell-based, human; conditions: 5 days of incubation, in vitro
Procedure: (§1) Per well, 1000 cells are seeded in 40 μL medium in white, sterile 384-well culture plates (TC-treated; PerkinElmer #6007680) and incubated overnight in a humidified incubator at 37° C. and 5% CO2. 0.1% DMSO-control or serial compound dilution in triplicates are added. […] After 5 days of incubation with test compounds, the cells plates are measured upon addition of CellTiter Glo Luminescent Cell Viability Reagent (Promega, #G9243) to assess cell viability. The plates are placed on a shaker for five minutes and additionally incubated for 10 minutes at room temperature to induce cell lysis and to stabilize the luminescent signal. The luminescent signal of each well is measured in an EnSpire Multilabel Plate Reader 658 (PerkinElmer). The dose response curves are fit and visualized using Boehringer Ingelheim's proprietary software MegaLab and PRISM (GraphPad Inc.).

parental NCI-N87 cells = assay: Proliferation assay (CellTiter Glo), parental NCI-N87 cells; type: cell-based, human; conditions: 5 days of incubation, in vitro
Procedure: as §1

[2] = test system: HER2-overexpressing human breast cancer cell line SUM190PT; type: in vivo
Procedure: The study is performed in human breast cancer cell line SUM190PT grown as subcutaneous xenografts in NMRI-Foxn1^nu mice. Day 1 was the first day, day 21 the last day of treatment and final day of analysis.
Cells are obtained and cultured as described in Example 8 (see paragraph 8.1.2).
Capecitabine can be purchased from Roche Pharma AG. Capecitabine is suspended with 0.5% Natrosol and administered intragastrally with a volume of 10 ml/kg.
Tumor volumes and side effects are monitored as described in Example 1 (see paragraph 1.1.6), except that control animals are sacrificed when the median tumor volume of the group reaches a size of approximately 540 mm^3.
(§2) The statistical evaluation of the tumor volume and the body weight is conducted on day 21 (last day of the study). Apart from this, statistical analysis was performed as described in Example 1 (see paragraph 1.1.7), with no evaluation of tumor growth after stop of treatment.

[3] = test system: HER2-overexpressing human NSCLC cell line Calu-3; assay: Calu-3 subcutaneous xenograft, zongertinib with trastuzumab and/or pertuzumab; type: in vivo, CB-17/Icr-Prkdc^scid mice; conditions: day 42, zongertinib 20 mg/kg qdx42 p.o., trastuzumab 20 mg/kg q7dx6 i.p., pertuzumab 20 mg/kg q7dx6 i.p., alone or combined
Procedure: The study is performed in human NSCLC cell line Calu-3 grown as subcutaneous xenografts in CB-17/Icr-Prkdc^scid mice. Day 1 was the first day, day 42 the last day of treatment and final day of analysis.
Calu-3 is a HER2-overexpressing human NSCLC cell line that can be obtained from ATCC (lot 614492062). Cells are cultured in T75, T175 and 5-Layer tissue culture flasks at 37° C. and 5% CO2. The medium used is EMEM (Lonza BE12-662F) supplemented with 10% FCS (Cytiva HyClone Characterized FBS, SH30084.03n), 2 mM Glutamax (Gibco 35050-038), 0.5 mM sodium pyruvate (Sigma S8636). Cultures are split once weekly with a ratio of 1:1.5-1:2.
To establish subcutaneous tumors, Calu-3 cells are harvested by centrifugation, washed and resuspended in PBS+5% FCS at 7×10^7 cells/ml. 50 μl cell suspension containing 3.5×10^6 cells is injected subcutaneously into the right flank of mice (1 site per mouse).
Mice in the control group are treated with vehicle, i.e.: • (i) 0.5% Natrosol, administered once daily for the duration of the treatment intragastrally by gavage needle with a volume of 10 ml/kg body weight; and • (ii) saline (0.9%), administered once every week intraperitoneally with a volume of 10 ml/kg.
Tumor volumes and side effects are monitored as described in Example 1 (see paragraph 1.1.6).
as §2

CC[C@@]1(O)C(=O)OCc2c1cc1n(c2=O)Cc2c-1nc1cc(F)c(C)c3c1c2[C@@H](NC(=O)COCNC(=O)CNC(=O)[C@H](Cc1ccccc1)NC(=O)CNC(=O)CNC(=O)CCCCCN1C(=O)C=CC1=O)CC3 [deruxtecan, reference compound] ({Hexanoyl(6-maleimido)}-GGFG[NHCH2OCH2CO]-Exatecan)
sensitivity (dose response, cell viability) [1]: resistant | sensitivity (dose response, cell viability) (parental NCI-N87 cells): sensitive

CCCCCOC(=O)Nc1nc(=O)n([C@@H]2O[C@H](C)[C@@H](O)[C@H]2O)cc1F [Capecitabine, capecitabine, reference compound]
Regressions >30% ([2]; day 21, tumors regressed/total (partial response), zongertinib 10 mg/kg qdx21 p.o., capecitabine 400 mg/kg qdx21 p.o., trastuzumab 20 mg/kg q7dx3 i.p., alone or combined): 0/8 | TGI ([2]; day 21, zongertinib 10 mg/kg qdx21 p.o., capecitabine 400 mg/kg qdx21 p.o., trastuzumab 20 mg/kg q7dx3 i.p., alone or combined): 106% | effect on tumor growth (median tumor volumes over time) ([2]; zongertinib 10 mg/kg qdx21, capecitabine 400 mg/kg qdx21, trastuzumab 20 mg/kg q7dx3, alone or triple combination): delayed tumor growth but did not shrink tumors

pertuzumab [reference compound]
Regressions >30% ([3]; tumors regressed/total (partial response)): 0/10 | TGI [3]: 89%
